Results reported in US20110319484A1, “NEUROPROTECTIVE COMPOUNDS” (Parque Tecnologico de Ciencias de la Salud, priority 2009, published 2011).
pIC50: −log10 of the molar value.

Assays:
[1] = target: T1, HMG-CoA reductase enzyme (Homo sapiens, UniProt P04035); assay: HMG-CoA reductase inhibition, spectrophotometric NADPH oxidation at 340 nm; assay type: biochemical; conditions: for pIC50: four independent assays, Trimmed Spearman-Karber method; for inhibition power of HMG-CoA reductase, times less than that of atorvastatin: relative to atorvastatin
T1 construct: the oxidation of the NADPH by the catalytic subunit of the HMG-CoA reductase
T1 sequence (P04035 340-888 limits assumed): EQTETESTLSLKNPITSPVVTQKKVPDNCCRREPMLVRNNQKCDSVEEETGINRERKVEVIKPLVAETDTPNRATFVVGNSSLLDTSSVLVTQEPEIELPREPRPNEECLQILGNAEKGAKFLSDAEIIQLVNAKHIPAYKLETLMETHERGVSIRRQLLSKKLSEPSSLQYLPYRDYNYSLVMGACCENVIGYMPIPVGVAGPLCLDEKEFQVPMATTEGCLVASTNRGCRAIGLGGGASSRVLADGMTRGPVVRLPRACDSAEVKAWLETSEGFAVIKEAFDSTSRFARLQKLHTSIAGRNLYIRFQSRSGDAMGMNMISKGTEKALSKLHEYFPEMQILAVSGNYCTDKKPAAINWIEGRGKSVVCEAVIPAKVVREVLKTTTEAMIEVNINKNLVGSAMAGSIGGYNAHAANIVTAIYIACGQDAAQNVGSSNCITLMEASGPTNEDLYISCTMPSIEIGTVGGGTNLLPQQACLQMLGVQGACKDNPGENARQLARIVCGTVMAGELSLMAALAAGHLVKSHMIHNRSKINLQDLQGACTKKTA
Text: To that end, the degree of inhibition of the HMG-CoA reductase enzyme by the different (1S,3R,7S,8S,8aR)-1,2,3,7,8,8a-hexahydro-3,7-dimethyl-8-[2-[(2R,4R)-tetrahydro-4-hydroxy-6-oxo-2H-pyran-2-yl]ethyl-1-naphthalenyl propanoate derivatives, optionally mono- or di-methylated at the carbon in the alpha position of propanoic acid (NST0003, NST0004 and NST0005) was studied.
During the reaction, the HMG-CoA reductase uses NADPH as a reducing agent and 3-hydroxy-3-methylglutaryl coenzyme A (HMG-CoA) as a substrate. Mevalonic acid, which serves as a substrate for the following reaction in order to continue with the cholesterol synthesis, is obtained as a reaction product. The enzymatic reaction object of study is schematically shown as follows:
This in vitro assay is based on the spectrophotometric measurement of the decrease of absorbance at 340 nm, representing the oxidation of the NADPH by the catalytic subunit of the HMG-CoA reductase in the presence of the HMG-CoA reductase substrate. The assay was carried out in a 96-well plate, with a total reaction volume of 200 μl. The reaction buffer (50 mM KH2PO4, 1 M KCl, 2 mg/ml bovine serum albumin (BSA) and 5 mM DTT, at pH=7.3) was prepared at the time of carrying out the reaction and was maintained at 37° C.
Four independent assays were carried out. […] The concentrations of the reagents involved in the reaction mixture were the following: 0.2 mM HMG-CoA, 3 μU/reaction HMG-CoA reductase and 0.2 mM NADPH. After brief agitation, the reading of the plate was taken in a spectrophotometer at the conditions of 340 nm, 37° C., detecting the decrease of absorbance at 340 nm over time. The percentage of HMG-CoA reductase enzymatic activity with respect to the control was calculated. The IC50 was calculated with the data obtained by means of the Trimmed Spearman-Karber method (Version 1.5).

[2] = system: human neuroblastoma SK-N-MC cells; assay: Protection against neuronal death induced by endoplasmic reticulum stress (tunicamycin), WST-1 test; assay type: cell-based; conditions: tunicamycin 20 μg/ml, 22 h, at 20 μg/ml, protection at 4, 10, 20 and 40 μg/ml
Description: To that end, an assay was performed on human neuroblastoma SK-N-MC cells in culture from the ATCC (HTB-10); in all cases strict rules of sterility were followed and the manipulation was performed in class II biological safety cabinets following European standard EN 12469. The cells were maintained in MEM culture medium supplemented with 1 mM sodium pyruvate, 2 mM L-glutamine, 0.1 mM non-essential amino acids, 0.05 mg/ml gentamicin and 10% fetal bovine serum.
The inhibition caused by the compound (1S,3R,7S,8S,8aR)-1,2,3,7,8,8a-hexahydro-3,7-dimethyl-8-[2-[(2R,4R)-tetrahydro-4-hydroxy-6-oxo-2H-pyran-2-yl]ethyl-1-naphthalenyl 2,2-dimethylpropanoate (NST0005) of cell death caused by treatment with tunicamycin (Tm), which generates endoplasmic reticulum stress by inhibition of N-glycosylation of proteins, which triggers cell death, was analyzed. […]
The cells were incubated (at 37° C. and 5% CO2) with these treatments for 22 h, after which time the WST-1 reagent (Roche) was added. The WST-1 Test, as has been previously mentioned, is based on the measurement of the metabolic activity; the metabolically active (live) cells reduce tetrazolium salt to formazan by means of the succinate-tetrazolium reductase system (of the mitochondrial respiratory chain) and the formazan which is formed can be detected colorimetrically since it has an absorbance of 440 nm. […]

Row | SMILES | pIC50 [1] | inhibition power of HMG-CoA reductase, times less than that of atorvastatin [1] [times] | maximum reduction of the percentage of cell death relating to death caused by Tunicamycin [2] [%]
1 | CCC(=O)O[C@H]1C[C@@H](C)C=C2C=C[C@H](C)[C@H](CC[C@@H]3C[C@@H](O)CC(=O)O3)[C@H]21 [NST0003, (1S,3R,7S,8S,8aR)-1,2,3,7,8,8a-hexahydro-3,7-dimethyl-8-[2-[(2R,4R)-tetrahydro-4-hydroxy-6-oxo-2H-pyran-2-yl]ethyl-1-naphthalenyl propanoate] | 4.39 | 170 | –
2 | CC(C)C(=O)O[C@H]1C[C@@H](C)C=C2C=C[C@H](C)[C@H](CC[C@@H]3C[C@@H](O)CC(=O)O3)[C@H]21 [NST0004] | 4.63 | 100 | –
3 | C[C@H]1C=C2C=C[C@H](C)[C@H](CC[C@@H]3C[C@@H](O)CC(=O)O3)[C@H]2[C@@H](OC(=O)C(C)(C)C)C1 [NST0005] | 6.06 | 4 | 38
